Assay [1] relates to 22Rv1. Nature of the assay: Single cell ROS measurement with Pt-nanoelectrodes, 22Rv1. In kind it is cell-based, human. Conditions: 22Rv1, 1 h incubation, IC50 concentration. As to the method:
Commercially available, disk-shaped carbon nanoelectrodes isolated in quartz (ICAPPIC Limited, London, UK) with diameters of 60–100 nm were used to prepare Pt nanoelectrodes for the amperometric detection of intracellular ROS level. Preparation of Pt-nanoelectrodes has been described in detail previously.
Briefly, a disk-shaped carbon nanoelectrode was etched in a 0.1 M NaOH, 10 mM KCl solution for 20–40 cycles of 10 seconds (from 0 to +2200 mV) to create nanocavities. Electrochemical deposition of platinum in nanocavities was achieved by cycling from 0 to −800 mV with a scan rate of 200 mV s^−1 for 8 to 10 cycles in 2 mM H2PtCl6 solution in 0.1 M hydrochloric acid. […]
The setup for amperometric measurements included a PC that was connected to a system consisting of an ADC–DAC converter Axon Digidata 1550B (Axon Instruments, Burlingame, CA, USA) and patch-clamp amplifier MultiClamp 700B (Axon Instruments, USA). […] The potential difference between the Pt-nanoelectrode and the reference electrode was recorded with the pClamp 11 software suite (Molecular Devices, Silicon Valley, CA, USA) and processed with Origin 2018 software.
PC-3 (2.0 × 10^5)/22Rv1 (3.5 × 10^5) cells were seeded in 35 mm Petri dishes, incubated under the conditions described above, and then treated for 24 h. […] Untreated cells were used as a control, which was evaluated at the beginning and at the end of the experiment. […]

Assay [2] has as its target T1, cytochrome P450 3A4 (Homo sapiens, UniProt P08684).
T1 construct: isoenzyme activity in human liver microsomes using conventional sample substrates and HPLC-MS/MS detection; from tissue; host or cells: human liver microsomes
Nature of the assay: Cytochrome inhibition in human liver microsomes, 3A4. In kind it is in vitro ADME. The source says: To assess the effect of drugs on liver cytochrome activity in drug development, test systems with recombinant enzymes and fluorescent substrates as well as microsomes with metabolic substrates and HPLC-MS/MS analysis were used. The present study aimed to investigate the effect of targeted delivery drugs specific to malignant prostate cells on cytochrome P450 (CYP450) isoenzyme activity in human liver microsomes using conventional sample substrates and HPLC-MS/MS detection. Detailed methodological parameters are described in the Supplementary Material.
In general terms: Liver microsomes are vesicles of endoplasmic reticulum, rich in cytochrome P450 enzymes.

Like-named read-outs stand apart in the source and are kept apart here.

T1 sequence (P08684 whole entry): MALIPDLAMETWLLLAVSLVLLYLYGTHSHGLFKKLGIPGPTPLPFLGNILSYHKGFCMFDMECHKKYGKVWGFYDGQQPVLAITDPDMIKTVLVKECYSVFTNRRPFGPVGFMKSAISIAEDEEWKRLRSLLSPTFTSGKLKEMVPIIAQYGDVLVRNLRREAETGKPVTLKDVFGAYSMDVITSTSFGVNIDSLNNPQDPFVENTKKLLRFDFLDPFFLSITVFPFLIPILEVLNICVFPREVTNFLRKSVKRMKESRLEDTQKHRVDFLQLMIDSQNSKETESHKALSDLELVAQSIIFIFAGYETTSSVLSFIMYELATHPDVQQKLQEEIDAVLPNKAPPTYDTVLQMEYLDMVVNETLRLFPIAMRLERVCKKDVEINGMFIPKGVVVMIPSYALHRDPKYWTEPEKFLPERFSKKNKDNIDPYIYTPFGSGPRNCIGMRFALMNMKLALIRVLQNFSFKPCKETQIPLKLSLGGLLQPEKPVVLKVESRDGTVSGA

For `C[C@]12CC[C@H](OC(=O)CCCc3cn(CCCNC(=O)[C@H](Cc4ccc(O)cc4)NC(=O)[C@H](Cc4ccccc4)NC(=O)CCC(=O)NCCCCCC(=O)N(CCCC[C@H](NC(=O)N[C@@H](CCC(=O)O)C(=O)O)C(=O)O)Cc4cccc(Cl)c4)nn3)CC1=CC[C@@H]1[C@@H]2CC[C@]2(C)C(c3cccnc3)=CC[C@@H]12` [PSMA-Abi], the “ROS (hydrogen peroxide) level in single cells” value in assay [1] is “significant increase in comparison with both the control and AbiAc groups”. Besides, the concentration for half-maximal inhibition (IC50) (in general, the concentration that inhibits the measured activity by half) worked out at 1.1 ± 0.2 µM in assay [2] (substrate Midazolam, read-out: IC50, 3A4-M (PSMA-Abi)) and 5.7 ± 0.8 µM in assay [2] (substrate Testosterone, read-out: IC50, 3A4-T (PSMA-Abi)).

(Values after paper PMC9783881, “Synthesis and Preclinical Evaluation of Small-Molecule Prostate-Specific Membrane Antigen-Targeted Abiraterone Conjugate” (Molecules, 2022).)
